Each structure is given as a SMILES string.

Consider 1 compound from patent US20100324101A1, “Use of Succinate Dehydrogenase Inhibitors for Increasing the Resistance of Plants or Parts of Plants to Abiotic Stress” (Bayer CropScience AG, priority 2009, published 2010).

What all share (type): in vivo
The test system of one experiment is maize - Zea mays. The experiment in a line: Greenhouse cold temperature stress test on maize after spray treatment. The following applies: cold temperature stress 8° C./1° C. (day/night) one week, 7 days recovery, spray 600 l/ha, damage vs untreated stressed plants. Here is the method:
(§1) Oilseed rape, maize and barley are cultivated on sandy clay under greenhouse conditions. After 2-3 weeks, after BBCH10 to BBCH13 has been reached, the plants are each treated with bixafen at application rates of from 250 g/ha and 100 g/h. The spray volume is adjusted to 600 l/ha. The plants are then exposed to drought stress by heating the test chamber to 26° C./18° C. (day/night) or cold temperature stress brought about by cooling the test chamber to 8° C./1° C. (day/night). After one week, the test chamber is readjusted to normal temperatures and the test plants are then allowed to recover for 7 days. Evaluation of the compounds tested is carried out by comparison of the treated plants with the untreated plants, each of which was exposed to the stress factors, using the formula below: [formula] EFF: efficiency (%) SWug: damage to untreated control plants SWbg: damage to treated plants

A further experiment has as its system barley - Hordeum vulgare. The experiment is described as follows: Greenhouse drought stress test on barley after spray treatment. The following applies: HORVS (barley), drought stress 26° C./18° C. (day/night) one week, 7 days recovery; 100 g of a.s./ha, spray 600 l/ha; damage vs untreated stressed plants. Here is the method: as §1
Experiment [1] has as its system oilseed rape - Brassica napus. The experiment in a line: Greenhouse drought stress test on oilseed rape after spray treatment. The following applies: BRSNS (oilseed rape), drought stress 26° C./18° C. (day/night) one week, 7 days recovery; 250 g of a.s./ha, spray 600 l/ha; damage vs untreated stressed plants. How it is done: as §1

As to `Cn1cc(C(=O)Nc2ccc(F)cc2-c2ccc(Cl)c(Cl)c2)c(C(F)F)n1` [bixafen, N-(3′,4′-dichloro-5-fluoro-1,1′-biphenyl-2-yl)-3-(difluoromethyl)-1-methyl-1H-pyrazole-4-carboxamide], the Efficiency with maize - Zea mays (100 g of a.s./ha) is given as 21%; in the experiment with maize - Zea mays (250 g of a.s./ha) it was 47%; in the experiment on barley - Hordeum vulgare, 22%; in experiment [1], 15%.
